Structures can show the parent of a compound that is named as a salt.
Columns and labels:
MET [1] = target: T1, MET (Homo sapiens, UniProt P08581); test: Test A: HTRF MET assay in 96-well format; type: biochemical; design: The His-Tev-MET (956-1390) recombinant DNA in pFastBac (Invitrogen) is transfected into insect cells; His-Tev (histidine tag with TEV cleavage site) (N, cleaved yes); made in house; host or cells: SF21 insect cells (baculovirus, pFastBac); details: MET 5 nM, 10 μM ATP, poly-(GAT)
Description: The His-Tev-MET (956-1390) recombinant DNA in pFastBac (Invitrogen) is transfected into insect cells and, after several viral amplification steps, the final baculovirus stock is tested for the expression of the protein of interest.
After infection for 72 h at 27° C. with the recombinant virus, SF21 cell cultures are harvested by centrifugation and the cell pellets are stored at −80° C.
The cell pellets are resuspended in the lysis buffer (buffer A [50 mM HEPES, pH 7.5, 250 mM NaCl, 10% glycerol, 1 mM TECP]; +cocktail of protease inhibitors, Roche Diagnostics, without EDTA, ref 1873580), stirred at 4° C. until the mixture is homogeneous, and then lysed mechanically using a “Dounce” type apparatus.
After centrifugation, the lysis supernatant is incubated for 2 h at 4° C. with nickel chelate resin (His-Trap 6 Fast Flow™, GE HealthCare). After washing with 20 volumes of buffer A, the suspension is packed into a column, and the proteins are eluted with a gradient of buffer B (buffer A+290 mM imidazole).
The fractions containing the protein of interest, for the purpose of electrophoretic analysis (SDS PAGE), are combined, concentrated by ultrafiltration (10 kDa cut-off) and injected onto an exclusion chromatography column (Superdex™ 200, GE HealthCare) equilibrated in buffer A.
After enzymatic cleavage of the histidine tag, the protein is reinjected onto a new IMAC nickel chelate chromatography column (His-Trap 6 Fast Flow™, GE HealthCare) equilibrated in buffer A. The fractions eluted with a gradient of buffer B and containing the protein of interest after electrophoresis (SDS PAGE) are finally combined and stored at −80° C.
For the production of autophosphorylated protein, the previous fractions are incubated for 1 h at ambient temperature after the addition of 2 mM ATP, 2 mM MgCl2 and 4 mM Na3VO4. After the reaction has been stopped with 5 mM of EDTA, the reaction mixture is injected onto a HiPrep desalifying column (GE HealthCare) pre-equilibrated in buffer A+4 mM Na3VO4, and the fractions containing the protein of interest (SDS PAGE analysis) are combined and stored at −80° C. The degree of phosphorylation is verified by mass spectrometry (LC-MS) and by peptide mapping.
MET at a final concentration of 5 nM is incubated in a final volume of 50 μl of enzymatic reaction in the presence of the test molecule (for a final concentration range of from 0.17 nM to 10 μM, 3% DMSO final concentration) in 10 mM MOPS buffer, pH 7.4, 1 mM DTT, 0.01% Tween 20. The reaction is initiated with the substrate solution to obtain final concentrations of 1 μg/ml poly-(GAT), 10 μM ATP and 5 mM MgCl2. After incubation for 10 min at ambient temperature, the reaction is stopped with a 30 μl mix so as to obtain a final solution of 50 mM Hepes, pH 7.5, 500 mM potassium fluoride, 0.1% BSA and 133 mM EDTA in the presence of 80 ng of streptavidin 61SAXLB Cis-Bio Int. and 18 ng of anti-phosphotyrosine Mab PT66-Europium Cryptate per well. After incubation for 2 hours at ambient temperature, the reading is taken at 2 wavelengths, 620 nm and 665 nm, on a reader for the TRACE/HTRF technique, and the % inhibition is calculated from the 665/620 ratios.
Target sequence in this assay (P08581 956-1390): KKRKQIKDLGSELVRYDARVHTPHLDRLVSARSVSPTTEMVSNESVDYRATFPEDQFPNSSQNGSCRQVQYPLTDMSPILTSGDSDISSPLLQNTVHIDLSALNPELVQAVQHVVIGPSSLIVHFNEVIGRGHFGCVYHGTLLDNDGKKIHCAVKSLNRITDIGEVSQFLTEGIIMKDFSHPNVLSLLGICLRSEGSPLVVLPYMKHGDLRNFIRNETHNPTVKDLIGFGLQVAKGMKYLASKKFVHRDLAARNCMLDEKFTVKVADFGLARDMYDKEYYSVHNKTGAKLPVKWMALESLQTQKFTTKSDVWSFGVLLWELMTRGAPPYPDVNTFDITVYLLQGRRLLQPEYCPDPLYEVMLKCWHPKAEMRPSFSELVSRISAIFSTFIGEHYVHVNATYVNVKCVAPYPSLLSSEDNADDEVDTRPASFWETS

MET [2] = target: T1, MET; test: Test B: inhibition of the autophosphorylation of MET, ELISA technique (pppY1230,1234,1235) in MKN45 cells; type: cell-based; design: endogenous in cells; host or cells: MKN45 cells; details: 1 h treatment, phosphoMET ELISA
Description: B) Test B: Inhibition of the autophosphorylation of MET; ELISA technique (pppY1230,1234,1235) a) Cell lysates: MKN45 cells are seeded into 96-well plates (cell coat BD polylysine) at 20 000 cells/well in 200 μl in RPMI medium+10% FCS+1% L-glutamine. They are left to adhere for 24 hours in an incubator.
The cells are treated the day after seeding with the products at 6 concentrations, in duplicate, for 1 h. At least 3 control wells are treated with the same final amount of DMSO.
Product dilution: Stock at 10 mM in pure DMSO—range from 10 mM to 30 μM with an increment of 3 in pure DMSO—intermediate dilutions to 1/50 in culture medium and then removal of 10 μl added directly to the cells (200 μl): final range of 10 000 to 30 nM.
At the end of the incubation, the supernatant is carefully removed and rinsing is performed with 200 μl of PBS. Next, 100 μl of lysis buffer are placed directly in the wells on ice and incubated at 4° C. for 30 minutes. Lysis buffer: 10 mM Tris HCl, pH 7.4, 100 mM NaCl, 1 mM EDTA, 1 mM EGTA, 1% Triton X-100, 10% glycerol, 0.1% SDS, 0.5% deoxycholate, 20 mM NaF, 2 mM Na3VO4, 1 mM PMSF and cocktail of antiproteases.
The 100 μl of lysates are transferred into a V-bottomed polypropylene plate and the ELISA is performed immediately, or the plate is frozen at −80° C.
70 μl of kit dilution buffer+30 μL of cell lysate, or 30 μl of lysis buffer for the blanks, are added to each well of the kit plate. Incubation is carried out for 2 h with gentle agitation at ambient temperature.
The wells are rinsed 4 times with 400 μl of kit washing buffer. Incubation is carried out with 100 μl of anti-phospho MET antibody for 1 hour at ambient temperature.
The wells are rinsed 4 times with 400 μl of kit washing buffer. Incubation is carried out with 100 μl of anti-rabbit HRP antibody for 30 minutes at ambient temperature (except for the wells of chromogen alone).
The wells are rinsed 4 times with 400 μl of kit washing buffer. 100 μL of chromogen are introduced and incubation is carried out for 30 minutes in the dark at ambient temperature.
The reaction is stopped with 100 μl of stop solution. The plate is read without delay at […], 0.1 second on a Wallac Victor plate reader.
Target sequence in this assay (P08581 25-1390): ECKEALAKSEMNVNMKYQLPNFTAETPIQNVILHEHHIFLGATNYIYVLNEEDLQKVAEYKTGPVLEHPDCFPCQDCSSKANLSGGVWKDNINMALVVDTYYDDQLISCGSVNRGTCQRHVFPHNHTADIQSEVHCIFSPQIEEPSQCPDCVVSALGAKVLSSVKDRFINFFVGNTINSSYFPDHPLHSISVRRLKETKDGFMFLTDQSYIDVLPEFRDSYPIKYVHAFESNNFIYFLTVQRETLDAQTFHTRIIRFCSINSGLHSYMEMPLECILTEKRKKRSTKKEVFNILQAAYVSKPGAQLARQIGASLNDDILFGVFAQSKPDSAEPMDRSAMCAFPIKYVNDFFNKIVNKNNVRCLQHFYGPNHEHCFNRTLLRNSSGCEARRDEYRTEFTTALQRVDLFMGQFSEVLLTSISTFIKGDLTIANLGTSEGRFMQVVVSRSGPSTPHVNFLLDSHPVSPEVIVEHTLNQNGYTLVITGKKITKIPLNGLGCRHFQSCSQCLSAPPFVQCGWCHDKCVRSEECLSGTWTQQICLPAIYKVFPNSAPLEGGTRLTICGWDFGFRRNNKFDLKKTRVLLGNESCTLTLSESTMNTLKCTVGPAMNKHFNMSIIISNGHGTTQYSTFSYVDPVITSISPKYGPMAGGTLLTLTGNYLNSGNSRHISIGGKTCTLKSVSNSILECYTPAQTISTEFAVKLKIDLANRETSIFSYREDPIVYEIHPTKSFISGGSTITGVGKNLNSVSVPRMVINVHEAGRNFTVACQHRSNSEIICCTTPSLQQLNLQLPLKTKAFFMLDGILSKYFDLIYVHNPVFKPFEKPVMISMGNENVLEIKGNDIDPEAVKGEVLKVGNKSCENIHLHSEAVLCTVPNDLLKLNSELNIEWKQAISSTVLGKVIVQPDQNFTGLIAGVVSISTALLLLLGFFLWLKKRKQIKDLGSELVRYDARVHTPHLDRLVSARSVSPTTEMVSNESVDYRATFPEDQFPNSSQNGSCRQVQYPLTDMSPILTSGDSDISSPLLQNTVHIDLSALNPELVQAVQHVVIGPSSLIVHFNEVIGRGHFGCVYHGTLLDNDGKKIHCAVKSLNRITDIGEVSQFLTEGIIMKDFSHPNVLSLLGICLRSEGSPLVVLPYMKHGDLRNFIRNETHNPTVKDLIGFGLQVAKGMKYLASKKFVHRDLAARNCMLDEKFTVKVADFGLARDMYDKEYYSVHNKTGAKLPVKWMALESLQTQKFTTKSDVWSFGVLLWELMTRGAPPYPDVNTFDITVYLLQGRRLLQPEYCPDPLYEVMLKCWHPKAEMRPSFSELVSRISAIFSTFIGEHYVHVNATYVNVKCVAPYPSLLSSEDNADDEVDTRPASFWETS

[3] = tested on: HCT116 cells and MKN45 cells; test: Test C: measurement of cell proliferation by 14C-thymidine pulse; type: cell-based; details: 14C-thymidine incorporation, 96 h of treatment; cell line not given
Description: The cells are seeded into Cytostar 96-well plates in 180 μl for 4 hours at 37° C. and 5% CO2: HCT116 cells in a proportion of 2500 cells per well in DMEM medium+10% foetal calf serum+1% L-glutamine, and MKN45 cells in a proportion of 7500 cells per well in RPMI medium+10% foetal calf serum+1% L-glutamine. After these 4 hours of incubation, the products are added in 10 μl as a […] concentrated solution according to the dilution method mentioned for the ELISA. The products are tested at 10 concentrations in duplicate from 10 000 nM to 0.3 nM with an increment of 3.
After treatment for 72 h, 10 μl of ^14C-thymidine at 10 μCi/ml are added so as to obtain 0.1 μCi per well. The ^14C-thymidine incorporation is measured on a Micro-Beta machine (Perkin-Elmer) after 24 hours of pulse and 96 h of treatment.
All the steps of the assay are automated on BIOMEK 2000 or TECAN stations.

Row | Structure (SMILES) | melting point | IC50 (MET [1]) | IC50 (MET [2]) | IC50 [3]
1 | O=C(Nc1nc2ccc(Sc3nnc4ccc(-c5cnn(C6CCNCC6)c5)cn34)cc2s1)C1CC1 (as salt: hydrochloride) [Example 16, N-(6-{[6-(1-piperidin-4-yl-1H-pyrazol-4-yl)[1,2,4]triazolo[4,3-a]pyridin-3-yl]sulphanyl}-1,3-benzothiazol-2-yl)cyclopropanecarboxamide] | > 260 °C | – | – | –
2 | O=C(Nc1nc2ccc(Sc3nnc4ccccn34)cc2s1)C1CC1 [Example 2, N-[6-([1,2,4]triazolo[4,3-a]pyridin-3-ylsulphanyl)-1,3-benzothiazol-2-yl]cyclopropanecarboxamide] | 187 to 190 °C | < 0.1 µM | > 0.5 µM | < 1 µM
3 | O=C(NCCN1CCOCC1)Nc1nc2ccc(Sc3nnc4ccccn34)cc2s1 [Example 3, 1-[2-(morpholin-4-yl)ethyl]-3-[6-([1,2,4]triazolo[4,3-a]pyridin-3-ylsulphanyl)-1,3-benzothiazol-2-yl]urea] | 204 to 207 °C | < 0.1 µM | < 0.1 µM | < 1 µM
4 | Nc1nc2ccc(Sc3nnc4ccc(I)cn34)cc2s1 [Example 6, 6-[(6-iodo[1,2,4]triazolo[4,3-a]pyridin-3-yl)sulphanyl]-1,3-benzothiazol-2-amine] | – | < 0.1 µM | – | < 1 µM
5 | Cn1cc(-c2ccc3nnc(Sc4ccc5nc(NC(=O)C6CC6)sc5c4)n3c2)cn1 [Example 10, N-(6-{[6-(1-methyl-1H-pyrazol-4-yl)[1,2,4]triazolo[4,3-a]pyridin-3-yl]sulphanyl}-1,3-benzothiazol-2-yl)cyclopropanecarboxamide] | – | < 0.1 µM | < 0.1 µM | < 1 µM
6 | O=C(Nc1nc2ccc(Sc3nnc4ccc(-c5cnn(C6CCNCC6)c5)cn34)cc2s1)C1CC1 [Example 16, N-(6-{[6-(1-piperidin-4-yl-1H-pyrazol-4-yl)[1,2,4]triazolo[4,3-a]pyridin-3-yl]sulphanyl}-1,3-benzothiazol-2-yl)cyclopropanecarboxamide] | – | < 0.1 µM | < 0.1 µM | < 1 µM

More lines, now with the values ahead:

Row | melting point | IC50 (MET [1]) | IC50 (MET [2]) | IC50 [3] | Structure (SMILES)
7 | 260 to 266 °C | < 0.5 µM | – | – | Nc1nc2ccc(Sc3nnc4ccccn34)cc2s1 [Example 1, 6-([1,2,4]triazolo[4,3-a]pyridin-3-ylsulphanyl)-1,3-benzothiazol-2-amine]
8 | – | < 0.1 µM | < 0.1 µM | < 1 µM | O=C(Nc1nc2ccc(Sc3nnc4ccc(-c5ccc(F)cc5)cn34)cc2s1)C1CC1 [Example 8, N-{6-[6-(4-fluorophenyl)[1,2,4]triazolo[4,3-a]pyridin-3-ylsulphanyl]-1,3-benzothiazol-2-yl}cyclopropanecarboxamide]
9 | – | < 0.1 µM | > 0.5 µM | < 1 µM | Cn1cc(-c2ccc3nnc(Sc4ccc5nc(N)sc5c4)n3c2)cn1 [Example 9, 6-{[6-(1-methyl-1H-pyrazol-4-yl)[1,2,4]triazolo[4,3-a]pyridin-3-yl]sulphanyl}-1,3-benzothiazol-2-amine]
10 | – | < 0.1 µM | < 0.1 µM | < 1 µM | O=C(Nc1nc2ccc(Sc3nnc4ccc(-c5cnn(CCOC6CCCCO6)c5)cn34)cc2s1)C1CC1 (stereo not shown) [Example 14, N-(6-{[6-(1-[2-(tetrahydro-2H-pyran-2-yloxy)ethyl]-1H-pyrazol-4-yl)[1,2,4]triazolo[4,3-a]pyridin-3-yl]sulphanyl}-1,3-benzothiazol-2-yl)cyclopropanecarboxamide]
11 | – | < 0.1 µM | < 0.1 µM | < 1 µM | O=C(Nc1nc2ccc(Sc3nnc4ccc(-c5cnn(CCO)c5)cn34)cc2s1)C1CC1 [Example 15, N-(6-{[6-(1-(2-hydroxyethyl)-1H-pyrazol-4-yl)[1,2,4]triazolo[4,3-a]pyridin-3-yl]sulphanyl}-1,3-benzothiazol-2-yl)cyclopropanecarboxamide]
